Measurements published in US11802128B2, “Azetidine and pyrrolidine PARP1 inhibitors and uses thereof” (Xinthera, Inc., priority 2021, dated 2023).

Legend:
PARP1 = PARP1 (Homo sapiens (Human), UniProt P09874); experiment: Biochemical fluorescent polarization (FP) assay, displacement of PARPi-FL; format: binding; details: 20 nM protein, 3 nM PARPi-FL, 4 h at room temperature
Experimental: (§1) The assay was performed utilizing the following method:
(§2) 100% DMSO was used for the high (with protein) and low (without protein) control samples. 20 nL of compound or DMSO alone was added to individual assay plate wells.
(§3) PARP1 and PARP2 protein were expressed, purified, and diluted in assay buffer containing 50 mM Tris pH 8.0, 0.001% Triton X-100, 10 mM MgCl2, 150 mM NaCl to a final concentration of 20 nM. The PARPi-FL was then added at a final concentration of 3 nM.
(§4) The assay plate is centrifuged at 1000 rpm for 1 min and incubated for 4 h at room temperature.
(§5) The fluorescent polarization is read using an Envision plate reader using the following settings: […]

PARP2 = PARP2 (Homo sapiens (Human), UniProt Q9UGN5); experiment: as above; format: binding; details: 20 nM protein, 3 nM PARPi-FL, 4 h at room temperature; read-out: IC50 FP PARP2
Sequence of PARP2 (Q9UGN5 whole entry): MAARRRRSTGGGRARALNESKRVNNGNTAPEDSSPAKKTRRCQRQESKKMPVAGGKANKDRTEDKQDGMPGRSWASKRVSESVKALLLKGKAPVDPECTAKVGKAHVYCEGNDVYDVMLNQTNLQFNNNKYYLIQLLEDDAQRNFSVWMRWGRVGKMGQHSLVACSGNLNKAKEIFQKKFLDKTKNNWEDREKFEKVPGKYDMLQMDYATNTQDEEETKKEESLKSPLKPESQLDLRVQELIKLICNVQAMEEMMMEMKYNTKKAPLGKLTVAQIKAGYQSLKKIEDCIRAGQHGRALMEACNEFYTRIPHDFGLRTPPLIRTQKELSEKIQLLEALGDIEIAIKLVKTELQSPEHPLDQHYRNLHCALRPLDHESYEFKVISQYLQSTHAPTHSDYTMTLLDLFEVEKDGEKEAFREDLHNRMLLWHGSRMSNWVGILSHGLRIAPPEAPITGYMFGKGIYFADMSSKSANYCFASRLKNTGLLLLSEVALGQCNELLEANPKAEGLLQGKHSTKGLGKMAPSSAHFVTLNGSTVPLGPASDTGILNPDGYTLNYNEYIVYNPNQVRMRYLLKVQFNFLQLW
Experimental: as §1, §2, §3, §4, §5

DLD-1 BRCA2(−/−) cells = experiment: Cell growth inhibition assay (CellTiter-Glo cell viability, 7 days); format: cell-based; details: Homo sapiens, 168 h
Procedure, shortened: (§6)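 Cells were seeded at 50 (DLD-1 parental), 200 (DLD-1 BRCA2−/−) or 500 (MDA-MB-436) cells/well onto 1:3 compound dilutions, top final 10 or 30 μM. Culture ran 7 days at 37 °C, 5% CO2. ATP was read by CellTiter-Glo 2.0, and IC50 was fitted from growth inhibition.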

[1] = tested on: MDA-MB-436 (mutated BRCA1) cells; experiment: as above; format: cell-based; details: Homo sapiens, 168 h, MDA-MB-436, 7 days
Procedure, shortened: as §6

Sequence of PARP1 (P09874 whole entry): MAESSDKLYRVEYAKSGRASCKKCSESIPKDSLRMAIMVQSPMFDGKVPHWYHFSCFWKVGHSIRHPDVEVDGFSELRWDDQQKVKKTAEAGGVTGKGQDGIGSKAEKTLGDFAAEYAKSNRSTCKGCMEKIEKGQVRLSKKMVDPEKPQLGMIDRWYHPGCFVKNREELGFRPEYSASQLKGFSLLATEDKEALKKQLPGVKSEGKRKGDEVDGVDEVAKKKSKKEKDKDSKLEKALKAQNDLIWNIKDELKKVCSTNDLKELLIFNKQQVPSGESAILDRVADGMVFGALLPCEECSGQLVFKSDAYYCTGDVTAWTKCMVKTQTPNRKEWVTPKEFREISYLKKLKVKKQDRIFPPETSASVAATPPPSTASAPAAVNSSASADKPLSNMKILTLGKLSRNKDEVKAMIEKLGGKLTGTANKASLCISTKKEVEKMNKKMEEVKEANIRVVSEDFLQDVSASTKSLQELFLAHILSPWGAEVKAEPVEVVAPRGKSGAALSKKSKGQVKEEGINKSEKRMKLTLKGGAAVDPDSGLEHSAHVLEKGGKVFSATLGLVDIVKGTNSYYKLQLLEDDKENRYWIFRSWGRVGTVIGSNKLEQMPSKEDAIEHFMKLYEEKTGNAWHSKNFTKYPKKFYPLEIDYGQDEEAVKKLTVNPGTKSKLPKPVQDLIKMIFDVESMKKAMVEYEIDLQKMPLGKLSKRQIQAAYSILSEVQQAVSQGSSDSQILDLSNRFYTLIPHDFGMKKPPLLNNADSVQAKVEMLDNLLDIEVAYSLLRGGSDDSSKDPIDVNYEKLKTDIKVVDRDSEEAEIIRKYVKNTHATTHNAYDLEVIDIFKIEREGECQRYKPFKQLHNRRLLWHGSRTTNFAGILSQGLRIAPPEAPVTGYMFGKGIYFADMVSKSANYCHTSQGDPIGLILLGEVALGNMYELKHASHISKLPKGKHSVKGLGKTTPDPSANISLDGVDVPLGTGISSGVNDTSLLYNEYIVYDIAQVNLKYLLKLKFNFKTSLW

IC50 (PARP1) | IC50 (PARP2) | EC50 (DLD-1 BRCA2(−/−) cells) | EC50 [1] | Compound
8 nM | 61000 nM | 2.2 nM | 1.3 nM | Cc1cc2ncc(CN3C[C@H](Oc4ccc(C(=O)NC5CC5)nc4)[C@H]3C)cc2[nH]c1=O [Example 53]
6.2 nM | 76000 nM | 45 nM | 12 nM | CCNC(=O)c1ccc(OC2CN(Cc3cnc4cc(C)c(=O)[nH]c4c3)C2)cn1 [Example 56]
9.4 nM | 47000 nM | 12 nM | 6.8 nM | Cc1cc2ncc(CN3CC(Oc4ccc(C(=O)NC5CC5)nc4)C3)cc2[nH]c1=O [Example 57]
6 nM | 8300 nM | 3.3 nM | 1.7 nM | CCNC(=O)c1ccc(OC2CN(Cc3cnc4cc(CC)c(=O)[nH]c4c3)C2)cn1 [Example 58]
5.5 nM | > 100000 nM | 9.8 nM | 4.7 nM | CCc1nc2cc(F)c(CN3C[C@H](Oc4ccc(C(=O)NC)nc4)[C@H]3C)cc2[nH]c1=O [Example 59]
6.6 nM | 9600 nM | 4.8 nM | 3.6 nM | CCc1cc2ncc(CN3C[C@H](n4ccc5nc(C(=O)NC)ccc54)[C@H]3C)cc2[nH]c1=O [Example 63, 1-[(2R,3S)-1-[(7-ethyl-6-oxo-5H-1,5-naphthyridin-3-yl)methyl]-2-methylazetidin-3-yl]-N-methylpyrrolo[3,2-b]pyridine-5-carboxamide]
> 100 nM | 2600 nM | 96 nM | 43 nM | CCc1cc2ncc(CN3C[C@H](Oc4ccc(C(=O)NC)cc4)[C@H]3C)cc2[nH]c1=O [Example 64]
3.3 nM | 6400 nM | 2.1 nM | 1 nM | CCc1cc2ncc(CN3C[C@H](Oc4cnc(C(=O)NC5CC5)c(F)c4)[C@H]3C)cc2[nH]c1=O [Example 66, N-cyclopropyl-5-{[(2R,3S)-1-[(7-ethyl-6-oxo-5H-1,5-naphthyridin-3-yl)methyl]-2-methylazetidin-3-yl]oxy}-3-fluoropyridine-2-carboxamide]
4.1 nM | 2400 nM | 1.3 nM | 1.1 nM | CNC(=O)c1ccc(O[C@H]2CN(Cc3cnc4cc(C(F)F)c(=O)[nH]c4c3)[C@@H]2C)cn1 [Example 70]
3.6 nM | 1700 nM | 4.8 nM | 2.1 nM | O=C(NC1CC1)c1ccc(OC2CN(Cc3cnc4cc(C5CC5)c(=O)[nH]c4c3)C2)cn1 [Example 73]
8.9 nM | 25000 nM | 3.9 nM | 2.6 nM | Cc1cc2ncc(CN3C[C@H](Oc4ccc(C(=O)NC5(C)CC5)nc4)[C@H]3C)cc2[nH]c1=O [Example 74]
4 nM | 5200 nM | 1.2 nM | 0.72 nM | C[C@@H]1[C@@H](Oc2ccc(C(=O)NC3CC3)nc2)CN1Cc1cnc2cc(C(F)F)c(=O)[nH]c2c1 [Example 75, N-cyclopropyl-5-{[(2R,3S)-1-{[7-(difluoromethyl)-6-oxo-5H-1,5-naphthyridin-3-yl]methyl}-2-methylazetidin-3-yl]oxy}pyridine-2-carboxamide]
2.8 nM | 8700 nM | 1.4 nM | 1.1 nM | C[C@@H]1[C@@H](Oc2ccc(C(=O)NC3CC3)nc2)CN1Cc1cnc2cc(Cl)c(=O)[nH]c2c1 [Example 76, 5-{[(2R,3S)-1-[(7-chloro-6-oxo-5H-1,5-naphthyridin-3-yl)methyl]-2-methylazetidin-3-yl]oxy}-N-cyclopropylpyridine-2-carboxamide]

Compound | IC50 (PARP1) | IC50 (PARP2) | EC50 (DLD-1 BRCA2(−/−) cells) | EC50 [1]
CNC(=O)c1ncc(O[C@H]2CN(Cc3cnc4cc(C)c(=O)[nH]c4c3)[C@@H]2C)cc1F [Example 52] | 6.3 nM | 76000 nM | 12 nM | 9.8 nM
Cc1cc2ncc(CN3C[C@H](Oc4ccc(F)nc4)[C@H]3C)cc2[nH]c1=O [Example 62] | 18 nM | 52000 nM | 86 nM | 140 nM
